# Where a name gives a salt, the structure may show the parent alone.
# Tests used:
# [1] = system: cardiac microtissues; assay: Ingenuity Pathway Analysis over-representation of differentially expressed genes (activation Z-score); format: cell-based, human; conditions: 48hr high; Group 1
# [2] = ref FDA label, cited from earlier work
# [3] = system: cardiac microtissues; assay: Transcriptomic profiling (mRNA-seq) and DESeq2 differential gene expression analysis in cardiac microtissues; conditions: absolute log2(Fold-Change) > 1, FDR p ≤ 0.05
smiles,measurement,setting,value
CC(=O)[C@]1(O)Cc2c(O)c3c(c(O)c2[C@@H](O[C@H]2C[C@H](N)[C@H](O)[C@H](C)O2)C1)C(=O)c1ccccc1C3=O [Idarubicin HCl],activation Z-score: Acute Phase Response Signaling,[1],-0.816
same,activation Z-score: Apelin Liver Signaling Pathway,[1],-0.707
same,activation Z-score: BER (Base Excision Repair) Pathway,[1],-2.333
same,activation Z-score: Cardiac Hypertrophy Signaling,[1],-1.732
same,activation Z-score: Cardiomyocyte Differentiation via BMP Receptors,[1],-2.236
same,activation Z-score: Cell Cycle Control of Chromosomal Replication,[1],-3.71
same,activation Z-score: Cell Cycle Regulation by BTG Family Proteins,[1],-1.342
same,activation Z-score: Cyclins and Cell Cycle Regulation,[1],-1.941
same,activation Z-score: D-myo-inositol-5-phosphate Metabolism,[1],0.258
same,activation Z-score: DNA Methylation and Transcriptional Repression Signaling,[1],-0.535
same,activation Z-score: Estrogen-mediated S-phase Entry,[1],-1.897
same,activation Z-score: Factors Promoting Cardiogenesis in Vertebrates,[1],-2.117
same,activation Z-score: G-Protein Coupled Receptor Signaling,[1],0.53
same,activation Z-score: GP6 Signaling Pathway,[1],0.378
same,activation Z-score: Glioma Invasiveness Signaling,[1],-0.632
same,activation Z-score: HIF1Î± Signaling,[1],0.209
same,activation Z-score: HMGB1 Signaling,[1],-0.577
same,activation Z-score: Hepatic Fibrosis Signaling Pathway,[1],-1.508
same,activation Z-score: ILK Signaling,[1],-3
same,activation Z-score: Insulin Secretion Signaling Pathway,[1],-0.192
same,activation Z-score: Integrin Signaling,[1],-1.877
same,activation Z-score: Kinetochore Metaphase Signaling Pathway,[1],-2.556
same,activation Z-score: Mismatch Repair in Eukaryotes,[1],-2.333
same,activation Z-score: Mitotic Roles of Polo-Like Kinase,[1],-1.604
same,"activation Z-score: NER (Nucleotide Excision Repair, Enhanced Pathway)",[1],-2.183
same,activation Z-score: Nitric Oxide Signaling in the Cardiovascular System,[1],0.775
same,activation Z-score: Protein Kinase A Signaling,[1],0.302
same,activation Z-score: Pyridoxal 5'-phosphate Salvage Pathway,[1],-1
same,activation Z-score: RHOGDI Signaling,[1],0.816
same,activation Z-score: Regulation Of The Epithelial Mesenchymal Transition By Growth Factors Pathway,[1],-1.147
same,activation Z-score: Role of NFAT in Cardiac Hypertrophy,[1],-1.512
same,activation Z-score: SPINK1 General Cancer Pathway,[1],2.333
same,activation Z-score: Salvage Pathways of Pyrimidine Ribonucleotides,[1],-1
same,activation Z-score: Senescence Pathway,[1],1.768
same,activation Z-score: Sphingosine-1-phosphate Signaling,[1],0
same,activation Z-score: Superpathway of Inositol Phosphate Compounds,[1],0.894
same,activation Z-score: Thrombin Signaling,[1],-0.471
same,activation Z-score: White Adipose Tissue Browning Pathway,[1],-2.449
same,activation Z-score: Wound Healing Signaling Pathway,[1],-0.164
same,activation Z-score: cAMP-mediated signaling,[1],0
same,Structural cardiotoxin?,[2]; FDA label references heart failure or a decrease in left ventricular ejection fraction,Y
same,Functional cardiotoxin?,[2]; compound annotation,Y
same,"number of significant differentially expressed genes, 6hr high","[3]; 6 hr, high concentration",24
same,"number of significant differentially expressed genes, 6hr low","[3]; 6 hr, low concentration",12
same,"number of significant differentially expressed genes, 48hr high","[3]; 48 hr, high concentration",2838
same,"number of significant differentially expressed genes, 48hr low","[3]; 48 hr, low concentration",578
same,"number of significant differentially expressed genes, 72hr high","[3]; 72 hr, high concentration",1616
same,"number of significant differentially expressed genes, 72hr low","[3]; 72 hr, low concentration",864

# From publication PMC11213733, “Computational approaches identify a transcriptomic fingerprint of drug-induced structural cardiotoxicity” (Cell Biology and Toxicology, 2024)
